Source: PMC9090415, “Discovery of small molecule inhibitors of Plasmodium falciparum apicoplast DNA polymerase” (Journal of Enzyme Inhibition and Medicinal Chemistry, 2022)

Target: P. falciparum apicoplast DNA polymerase (Pf-apPOL) (Plasmodium falciparum, UniProt Q8ILY1)
Experiment: Fluorescence-based high-throughput DNA polymerase assay (molecular beacon), primary screen and dose-response;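 for % inhibition ApPOL 90': test concentration in µM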;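 for % inhibition apPOL 180': test concentration in µM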
Type: biochemical
Outline: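 Single-point screening used 10 µM compound with 20 nM polymerase, 20 nM hairpin substrate and 6 µM dNTPs for 90 min at 25 °C. Confirmatory titrations (2.5–80 µM) followed fluorescence at three times, and IC50 was derived from a fit including a cooperativity term n.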

Chain of P. falciparum apicoplast DNA polymerase (Pf-apPOL) (Q8ILY1 entry or part of it): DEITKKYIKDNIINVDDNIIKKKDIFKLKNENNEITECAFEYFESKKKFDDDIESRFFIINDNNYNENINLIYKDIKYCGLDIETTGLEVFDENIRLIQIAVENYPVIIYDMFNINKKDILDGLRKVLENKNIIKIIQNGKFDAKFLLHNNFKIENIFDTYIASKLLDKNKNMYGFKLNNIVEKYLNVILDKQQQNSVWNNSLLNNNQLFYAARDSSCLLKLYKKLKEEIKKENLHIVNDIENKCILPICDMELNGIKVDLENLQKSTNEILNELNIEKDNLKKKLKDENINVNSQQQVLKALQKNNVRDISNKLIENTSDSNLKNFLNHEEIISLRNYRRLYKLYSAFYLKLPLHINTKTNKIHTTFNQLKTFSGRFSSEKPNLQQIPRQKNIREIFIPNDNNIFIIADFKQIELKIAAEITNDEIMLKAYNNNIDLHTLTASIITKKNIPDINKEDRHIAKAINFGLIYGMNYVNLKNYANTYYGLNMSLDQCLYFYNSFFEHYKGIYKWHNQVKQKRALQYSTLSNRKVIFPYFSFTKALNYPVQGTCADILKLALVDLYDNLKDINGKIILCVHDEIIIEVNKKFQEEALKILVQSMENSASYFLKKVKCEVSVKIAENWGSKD

In the case of `COc1ccc(NC(=O)Cn2nc3c(cc2=O)CCC3)cc1Cl` [Molecule 4, COc1ccc(cc1Cl)NC(=O)Cn1nc2CCCc2cc1=O], the “% inhibition Apo pol 10'” value (DRC-1; concentration 2.5; 10') is reported as -1.67%, the “% inhibition Apol 90'” value (DRC-1; concentration 2.5; 90') is reported as -5% and the “% inhibition apPOL 180'” value (DRC-1; concentration 2.5; 180') is reported as -9%. The “% inhibition Apo pol 10'” value (DRC-1; concentration 5; 10') was 44%, the “% inhibition Apol 90'” value (DRC-1; concentration 5; 90') was 29% and the “% inhibition apPOL 180'” value (DRC-1; concentration 5; 180') was 17%. The “% inhibition Apo pol 10'” value (DRC-1; concentration 10; 10') was 88%, the “% inhibition Apol 90'” value (DRC-1; concentration 10; 90') was 78% and the “% inhibition apPOL 180'” value (DRC-1; concentration 10; 180') was 66%. The “% inhibition Apo pol 10'” value (DRC-1; concentration 20; 10') was 94%, the “% inhibition Apol 90'” value (DRC-1; concentration 20; 90') was 90% and the “% inhibition apPOL 180'” value (DRC-1; concentration 20; 180') was 86%. The “% inhibition Apo pol 10'” value (DRC-1; concentration 40; 10') was 93%, the “% inhibition Apol 90'” value (DRC-1; concentration 40; 90') was 92% and the “% inhibition apPOL 180'” value (DRC-1; concentration 40; 180') was 91%. The “% inhibition Apo pol 10'” value (DRC-1; concentration 80 (unit not given); 10') was 89%, the “% inhibition Apol 90'” value (DRC-1; concentration 80; 90') was 90% and the “% inhibition apPOL 180'” value (DRC-1; concentration 80; 180') was 91%. The “% inhibition Apol 40'” value (DRC-2; 40'; concentration 10) was 69%, the “% inhibition Apol 40'” value (DRC-2; 40'; concentration 20) was 69% and the “% inhibition ApPOL 90'” value (DRC-2; 90'; concentration 10) was 71%. For the same molecule, the “% inhibition ApPOL 90'” value (DRC-2; 90'; concentration 80) was 71%, the “% inhibition apPOL 180'” value (DRC-2; 180'; concentration 5) was 44% and the “% inhibition apPOL 180'” value (DRC-2; 180'; concentration 10) was 69%. For the same molecule, the “% inhibition apPOL 180'” value (DRC-2; 180'; concentration 40) was 78%, the “% inhibition Apo pol 5'” value (DRC-2; concentration 2.5; 5') was 19% and the “% inhibition Apol 40'” value (DRC-2; concentration 2.5; 40') was 18%. For the same molecule, the “% inhibition ApPOL 90'” value (DRC-2; concentration 2.5; 90') was 16%, the “% inhibition apPOL 180'” value (DRC-2; concentration 2.5; 180') was 8% and the “% inhibition Apo pol 5'” value (DRC-2; concentration 5; 5') was 46%. For the same molecule, the “% inhibition Apol 40'” value (DRC-2; concentration 5; 40') was 55%, the “% inhibition ApPOL 90'” value (DRC-2; concentration 5; 90') was 54% and the “% inhibition apPOL 180'” value (DRC-2; concentration 5; 180') was 44%. The “% inhibition Apo pol 5'” value (DRC-2; concentration 10; 5') was 52%, the “% inhibition Apol 40'” value (DRC-2; concentration 10; 40') was 69% and the “% inhibition ApPOL 90'” value (DRC-2; concentration 10; 90') was 71%. For the same molecule, the “% inhibition apPOL 180'” value (DRC-2; concentration 10; 180') was 69%, the “% inhibition Apo pol 5'” value (DRC-2; concentration 20; 5') was 49% and the “% inhibition Apol 40'” value (DRC-2; concentration 20; 40') was 69%. The “% inhibition ApPOL 90'” value (DRC-2; concentration 20; 90') was 73%, the “% inhibition apPOL 180'” value (DRC-2; concentration 20; 180') was 75% and the “% inhibition Apo pol 5'” value (DRC-2; concentration 40; 5') was 50%. The “% inhibition Apol 40'” value (DRC-2; concentration 40; 40') was 70%, the “% inhibition ApPOL 90'” value (DRC-2; concentration 40; 90') was 74% and the “% inhibition apPOL 180'” value (DRC-2; concentration 40; 180') was 78%. For the same molecule, the “% inhibition Apo pol 5'” value (DRC-2; concentration 80; 5') was 43%, the “% inhibition Apol 40'” value (DRC-2; concentration 80; 40') was 65% and the “% inhibition ApPOL 90'” value (DRC-2; concentration 80; 90') was 71%. The “% inhibition apPOL 180'” value (DRC-2; concentration 80; 180') was 76%, the “% inhibition Apo pol 10'” value (first dose-response set; 10'; concentration 5) was 44% and the “% inhibition Apol 90'” value (first dose-response set; 90'; concentration 10) was 78%. For the same molecule, the “% inhibition Apol 90'” value (first dose-response set; 90'; concentration 20) was 90%, the “% inhibition Apol 90'” value (first dose-response set; 90'; concentration 80) was 90% and the “% inhibition apPOL 180'” value (first dose-response set; 180'; concentration 40) was 91%. For the same molecule, the “% inhibition apPOL 180'” value (first dose-response set; 180'; concentration 80) was 91%, the “DNA Pol” value (primary screen value of the 186 hits; unit not given; 90 min, 10 µM) was 45 and the “DNA Pol” value (primary screen value; head prints only 'DNA Pol'; 90 min, 10 µM) was 45.
`COCC(=O)Nc1c(-c2cccc(F)c2)nc2cc(C)ccn12` [Molecule 44] showed an IC50 (supplemental file 2, sheet IC50 nontoxic compounds; Pf-apPOL) of 11.1 µM.
